SMILES | melting point
COc1ccc(C(=O)Nc2ncc(C)s2)cc1N | 225 to 227 °C
COc1ccccc1C(=O)c1ccccn1 | 49 to 51 °C
Nc1ccc(-c2nc3ccccc3o2)cc1 | 170 to 172 °C
N#CC1(N)CCCCC1 | 25 to 27 °C
NS(=O)(=O)c1cnn(-c2cccc(C(F)(F)F)c2)c1 | 162 to 164 °C
CCOC(=O)c1nc(-c2ccc(Cl)c(Cl)c2)oc1C | 99 to 101 °C
Cc1cc(C)c2c(c1)NCCC2 | 34 to 36 °C
Nc1ccc(-n2nccn2)cc1C(F)(F)F | 84 to 86 °C
Brc1ncc(-c2ccccc2)s1 | 55 to 57 °C
CC(C)S(=O)(=O)Nc1cccc(O)c1 | 123 to 125 °C
Sc1nc(-c2ccccc2)ns1 | 161 to 163 °C
Oc1nnc2c(Cl)cccn12 | 269 to 271 °C
Oc1ccc(OCC(F)(F)F)cc1 | 60 to 62 °C
CC1CN(c2ccc(N)cc2)CC(C)O1 (configuration not stated) | 73 to 75 °C
Oc1cccc(-n2cncn2)c1 | 181 to 183 °C
O=C(Nc1cccc(Br)c1)c1cccc(S(=O)(=O)N2CCCCCC2)c1 | 149 to 151 °C
Cc1ccc(N)cc1NC(=O)c1ccccc1I | 190 to 192 °C
Sc1nnc(-c2ccncc2)[nH]1 | 308 to 313 °C
Oc1ccccc1Oc1ccccn1 | 110 to 112 °C
O=C(O)c1csc(-c2cc3ccccc3o2)n1 | 242 to 244 °C
CC(NC(=O)OC(C)(C)C)c1ccc(CN)cc1 (configuration not stated) | 78 to 80 °C
Brc1cnn(-c2ccncc2)c1 | 125 to 127 °C
O=C(CCl)Nc1ccncc1 | 295 to 297 °C

SMILES | melting point
Cc1nn(Cc2cccc(Cl)c2)cc1C(=O)O | 167 to 169 °C
NS(=O)(=O)c1ccc2c(c1)OCO2 | 155 to 157 °C
Clc1ccc2c(n1)CCC2 | 69 to 71 °C
NNc1ccc(S(=O)(=O)NC2CCCC2)cn1 | 167 to 169 °C
N#Cc1cc2ccccc2nc1Br | 179 to 181 °C
COc1nc(N(C)C)sc1C=O | 69 to 71 °C
Cc1ccc(-c2ncco2)cc1N | 89 to 91 °C
C#CCOc1cccc(S(C)(=O)=O)c1 | 89 to 91 °C
COC(=O)c1c(N)sc(C)c1-c1ccc(Cl)cc1Cl | 94 to 96 °C
COc1ccc(OC)c(C(O)CN)c1 (configuration not stated) | 96 to 98 °C
CC(C)(O)CN1CCNCC1 | 61 to 63 °C
COc1cccc2sc(NC(=O)OCC(F)(F)F)nc12 | 133 to 135 °C
COc1ccc(S(N)(=O)=O)cc1N | 145 to 147 °C
Cc1nc(-c2ccc(Cl)nc2)[nH]c(=O)c1C | 263 to 265 °C
CN(C)S(=O)(=O)c1ccc(S(=O)(=O)Cl)cc1 | 134 to 136 °C
COc1ccccc1NS(=O)(=O)c1ccc2oc(N)nc2c1 | 210 to 212 °C
O=Cc1cc(Cl)c2c(c1)OCCCO2 | 78 to 82 °C
NC(=NO)c1ccc(COc2ccccc2F)cc1 | 135 to 137 °C
COc1ccc(NCC(=O)NN)cc1 | 94 to 98 °C
CC(C)(C#N)NS(C)(=O)=O | 61 to 63 °C
Cc1cc(C(=O)O)c2c(-c3ccco3)noc2n1 | 232 to 234 °C
Cc1ccc(OCc2nc(C(=O)NC3=NCCS3)cs2)cc1 | 200 to 202 °C
Nc1ccc(Cl)c(S(=O)(=O)Nc2ccc(Cl)cc2)c1 | 123 to 125 °C

SMILES | melting point
Cc1cc(C)n(-c2cncc(Cl)n2)n1 | 88 to 90 °C
COc1ccc(OC)c(NC(=O)CCl)c1 | 169 to 171 °C
CC(C)(C)c1nn(-c2ccccc2)c(Cl)c1C=O | 34 to 36 °C
Cc1noc(-c2ccccc2N)n1 | 120 to 122 °C
CCOc1ccc(Nc2nnc(S)s2)cc1 | 170 to 172 °C
O=CC1=C(Sc2nc3ccccc3o2)CCCC1 | 93 to 95 °C
N#Cc1ccc2cc(Br)c(Br)cc2c1 | 138 to 140 °C
Cc1cc(C)n2cnc(C(N)=O)c2n1 | 303 to 305 °C
Cc1cc(C)cc(C(N)c2cccnc2)c1 (configuration not stated) | 47 to 49 °C
O=S(=O)(Cl)c1cc(Cl)cc2c1OCC2 | 105 to 107 °C
COc1ccccc1NS(=O)(=O)c1cc(N)ccc1N1CCCC1 | 159 to 161 °C
Fc1ccc(-c2cc[nH]n2)cc1 | 96 to 98 °C
OCc1cc(Br)c2c(c1)OCO2 | 134 to 136 °C
CN1CCN(c2ccc(CN)cn2)CC1 | 60 to 62 °C
COc1cc2nc(C)sc2cc1OC | 70 to 72 °C
COc1cc(OC)c2c(Cl)ccnc2c1 | 92 to 94 °C
CC(C)Cc1nnc(N)s1 | 239 to 241 °C
NNC(=O)N1CCSCC1 | 129 to 131 °C
Cc1ccc2[nH]c3c(c2c1)CCCC3=O | 185 to 187 °C
CC(C)Oc1ccc(S(=O)(=O)Cl)cc1Cl | 95 to 97 °C
Cc1c(N)cccc1C(N)=O | 173 to 175 °C

Second part, the compound after the results:

melting point | SMILES
73 to 75 °C | O=C(CCl)NCC(c1ccc(Cl)cc1Cl)c1c[nH]c2ccccc12 (configuration not stated)
158 to 160 °C | NC(=O)Cc1ccccc1F
151 to 153 °C | CNc1snc(C)c1C(=O)O
123 to 125 °C | Cc1cc(Br)ccc1C(=O)N1CCCC(C(=O)O)C1 (configuration not stated)
263 to 265 °C | O=C(O)CCc1nc2ccccc2[nH]c1=O
239 to 241 °C | O=C(O)c1cc(Br)c2occc2c1
64 to 66 °C | CC(=O)NCc1ccc(C(=O)C(C)Cl)o1 (configuration not stated)
176 to 178 °C | NS(=O)(=O)c1cc(C(=O)O)co1
218 to 220 °C | O=C(O)c1ccnc(Cl)c1I
196 to 198 °C | Cc1nc(COc2ccc(C(=O)O)cc2)cs1
175 to 177 °C | O=C(O)c1ccccc1CSc1nc2ccccc2o1
161 to 163 °C | CCOc1cc(C(=O)O)cc(-c2ccccc2)c1OC
83 to 85 °C | COC(=O)C1=NOC(C(=O)O)C1 (configuration not stated)
84 to 86 °C | O=C(O)C1CC1c1cccc(C(F)(F)F)c1 (configuration not stated)
144 to 146 °C | CN(C(=O)c1cccc(N)c1)c1ccccc1
120 to 122 °C | CN(C(=O)c1ccc(Cl)c(N)c1)c1ccccc1
123 to 125 °C | N#Cc1cccc(OCC(=O)O)c1
249 to 251 °C | Cc1cc(N2CCCS2(=O)=O)ccc1C(=O)O
108 to 110 °C | O=C(O)CCCc1nc(-c2ccc(Cl)cc2)no1
154 to 156 °C | Cc1cc(Br)cc(Cl)c1C(=O)O
185 to 187 °C | O=C(O)CN1C(=O)CNC1=O
98 to 100 °C | CN(c1ccccc1)S(=O)(=O)c1cccc(NC(=O)CCl)c1
175 to 177 °C | O=C(O)c1cccc(-c2ncon2)c1
139 to 141 °C | CN1CC(=O)N(CC(=O)O)C1=O
122 to 124 °C | COc1ccc(C(C)=O)cc1CC(=O)O

melting point | SMILES
95 to 97 °C | O=C1CC2CCCc3cccc1c32 (configuration not stated)
178 to 180 °C | Cc1cc(Br)c2c(c1)C(=O)C(=O)N2
66 to 68 °C | COc1ccc(C(C)CC(=O)O)cc1 (configuration not stated)
212 to 214 °C | COc1ccc(-c2nn(CCC#N)cc2/C=C(/C#N)C(=O)O)cc1
136 to 138 °C | O=C(O)CNC(=O)c1ccc(Cl)c(Cl)c1
159 to 161 °C | COC(=O)c1n[nH]c2ccccc12
207 to 210 °C | Cc1csc(Sc2ccc(C(=O)O)cc2[N+](=O)[O-])n1
143 to 145 °C | O=C(O)C1(c2cccc(Br)c2)CC1
209 to 211 °C | O=C(O)COc1ccc(Cl)c2cccnc12
122 to 124 °C | O=C(O)C1CCCN(C(=O)Cc2ccc(F)cc2)C1 (configuration not stated)
37 to 39 °C | O=C(CC(F)(F)F)c1ccccc1
316 to 318 °C | Cn1c(=O)c2c(=O)cc(N)[nH]c2n(C)c1=O
73 to 75 °C | CCCOc1cccc(C(=O)O)c1
201 to 203 °C | Cc1c(C(=O)O)cc([N+](=O)[O-])c(C)c1[N+](=O)[O-]
108 to 110 °C | CCCNC(=O)c1ccc(Cl)nc1
91 to 93 °C | O=C(CCl)Nc1ccccc1[N+](=O)[O-]
144 to 146 °C | CC(C)(C)OC(=O)NCC(C(=O)O)c1ccccc1 (configuration not stated)
163 to 165 °C | CC(=O)Nc1cc(F)c(S(=O)(=O)Cl)cc1Cl
178 to 182 °C | O=C(Nc1ccccc1C(=O)O)c1ccccc1
128 to 130 °C | Nc1ccccc1NC(=O)CC1C=CCC1 (configuration not stated)
127 to 129 °C | O=C(O)Cc1cccc2sccc12
183 to 185 °C | CN(C)S(=O)(=O)c1cc(NC(=O)CCl)ccc1Cl
63 to 65 °C | O=C(O)CSCC(=O)Nc1cccc(Br)c1
98 to 100 °C | CC(C)(C)OC(=O)N1CCC(C(=O)NN)CC1
228 to 230 °C | NC(CC(=O)O)C1CCOCC1 (configuration not stated)

melting point | SMILES
226 to 228 °C | Cc1nc2cc(F)cc(C(=O)O)c2nc1C
179 to 181 °C | CN(CC(=O)O)S(=O)(=O)c1ccc(Br)cc1
149 to 151 °C | Cc1nc(Cl)sc1C(=O)O
178 to 180 °C | O=C(O)C(NCC(F)(F)F)c1cc(Br)cs1 (configuration not stated)
97 to 99 °C | COC(=O)c1cc(Oc2ccc(F)cc2)c(F)cc1N
68 to 70 °C | O=C(O)C=CC1CC1
118 to 120 °C | O=C(O)CCOc1ccc(Oc2ccccc2)cc1
145 to 147 °C | CC(C)CC1(C)NC(=O)NC1=O (configuration not stated)
153 to 155 °C | O=C(O)c1ncncc1Cl
179 to 181 °C | O=C(O)c1nn(-c2ccccc2)c2c1CCC2
141 to 143 °C | CCCSc1ccc(C(=O)O)cc1
253 to 255 °C | NNC(=O)c1cc2c(s1)CCCCC2
168 to 170 °C | COc1ccc(CN2C(=O)NC(=O)C2=O)cc1
197 to 199 °C | Cc1nc(COc2ccc(C(=O)O)cc2)no1
140 to 142 °C | CC(C)C(NC(=O)Nc1ccccc1)C(=O)O (configuration not stated)
218 to 220 °C | Cc1nc2ccc(Cl)cc2cc1C(=O)O
198 to 200 °C | COc1ccc(S(=O)(=O)NC(C)(C)C)c(CC(=O)O)c1
172 to 174 °C | CS(=O)(=O)c1ccc(OCC(=O)O)cc1
129 to 131 °C | CC(C)c1ncc(Cl)c(C(=O)O)n1
214 to 216 °C | O=C(O)c1cc2c(F)cccc2s1
102 to 104 °C | O=C(O)c1cc(Cl)ccc1Oc1ccc(F)cc1
141 to 143 °C | O=C(O)CN1C(=O)CCCc2ccccc21
71 to 73 °C | O=C1CCc2c(F)cccc21
61 to 63 °C | CS(=O)(=O)CCC(Cc1cccc(Br)c1)C(=O)O (configuration not stated)
19 to 21 °C | O=C(O)CSc1cccc(C(F)(F)F)c1
